Literature values as cited in US20100136089A1, “LOCATION OF FATTY ACID ESTERS ON TAMPONS AND TOXIN […]” (priority 2008, published 2010).

System: humans
Settings: stated as known

Structure (SMILES): CCCCCCCCCCCC(=O)OCC(O)CO (stereo not shown) [GML, glycerol monolaurate]
- toxicity to humans: non toxic to humans
